Measured values: ChEMBL document CHEMBL1158858, “(2,4-cis and trans)-gigantecinone and 4-deoxygigantecin, bioactive nonadjacent bis-tetrahydrofuran annonaceous acetogenins, from Goniothalamus giganteus” (J Nat Prod, 1997)
Converted amounts (≈) assume the structure as drawn.

Assays:
[1] = tested on: A549; assay: Cytotoxicity against human A549 cells after 7 days by MTT assay; type: functional; settings: for EC50: Homo sapiens, A549, 168 h, read-out: ED50 (the source's name)
[2] = tested on: Aedes aegypti; assay: Insecticidal activity against yellow fever mosquito larvae by microtiter plate assay; type: functional
[3] = tested on: A498; assay: Cytotoxicity against human A498 cells after 7 days by MTT assay; type: functional; settings: A498, 168 h, read-out: ED50 (the source's name)
[4] = tested on: HT-29; assay: Cytotoxicity against human HT29 cells after 7 days by MTT assay; type: functional; settings: HT-29, 168 h, read-out: ED50 (the source's name)
[5] = tested on: MIA PaCa-2; assay: Cytotoxicity against human MIAPaCa2 cells after 7 days by MTT assay; type: functional; settings: MIA PaCa-2, 168 h, read-out: ED50 (the source's name)
[6] = tested on: Artemia; assay: (§1) Toxicity to brine shrimp; type: organism-based; settings: in vivo
[7] = tested on: MCF7; assay: Cytotoxicity against human MCF7 cells after 7 days by MTT assay; type: functional; settings: MCF7, 168 h, read-out: ED50 (the source's name)
[8] = tested on: PC-3; assay: Cytotoxicity against human PC3 cells after 7 days by MTT assay; type: functional; settings: PC-3, 168 h, read-out: ED50 (the source's name)
[9] = as §1; type: organism-based; settings: artemia, in vivo

Row | SMILES | EC50 [1] [µg/mL] | LC50 [2] [µg/mL] | EC50 [3] [µg/mL] | EC50 [4] [µg/mL] | EC50 [5] [µg/mL] | LC50 [6] [ppm] | EC50 [7] [µg/mL] | EC50 [8] [µg/mL] | ED50 [1] [×10⁻⁷ ug/ml] | LC50 [9] [µg/mL]
1 | CCCCCCCCCCCC[C@@H](O)[C@H]1CC[C@H]([C@H](O)CC[C@H](O)[C@@H]2CC[C@@H](CCCCCCCC3=C[C@H](C)OC3=O)O2)O1 | 0.131 (≈ 0.21 µM) | 0.68 (≈ 1.09 µM) | 0.328 (≈ 0.527 µM) | 0.143 (≈ 0.23 µM) | 0.393 (≈ 0.631 µM) | 0.04 | 1 (≈ 1.61 µM) | 0.15 (≈ 0.241 µM) | – | –
2 | CCCCCCCCCCCC[C@@H](O)[C@H]1CC[C@H]([C@H]2CC[C@@H]([C@@H]3CC[C@@H](CCCCCCCC4=C[C@H](C)OC4=O)O3)OCO2)O1 | 0.0382 (≈ 0.0602 µM) | – | 0.162 (≈ 0.255 µM) | 0.183 (≈ 0.288 µM) | 0.217 (≈ 0.342 µM) | – | 0.495 (≈ 0.78 µM) | 0.132 (≈ 0.208 µM) | – | –
3 | CCCCCCCCCCCC[C@@H](O)[C@H]1CC[C@H]([C@H](O)CC[C@H](O)[C@@H]2CC[C@@H](CCCCC[C@@H]3CC(CC(C)=O)C(=O)O3)O2)O1 (some centres undefined) | 0.214 (≈ 0.335 µM) | 0.27 (≈ 0.423 µM) | 0.212 (≈ 0.332 µM) | > 1 | > 1 | 3.27 | > 1 | 0.00108 (≈ 0.00169 µM) | – | –
4 | CCCCCCCCCCCC[C@@H](O)[C@H]1CC[C@H]([C@H]2CC[C@@H]([C@@H]3CC[C@@H](CCCCC[C@@H]4CC(CC(C)=O)C(=O)O4)O3)OCO2)O1 (mixture of isomers) | 0.252 | – | 0.271 | > 1 | > 1 | – | > 1 | 0.00306 | – | –
5 | COc1cccc2c1C(=O)c1c(O)c3c(c(O)c1C2=O)C[C@@](O)(C(=O)CO)C[C@@H]3O[C@H]1C[C@H](N)[C@H](O)[C@H](C)O1 [DOXORUBICIN] | 0.00393 (≈ 0.00723 µM) | – | 0.113 (≈ 0.208 µM) | 0.725 (≈ 1.33 µM) | 0.00142 (≈ 0.00261 µM) | – | 0.369 (≈ 0.679 µM) | 0.0146 (≈ 0.0269 µM) | – | –
6 | CCCCCCCCCCCC[C@@H](O)[C@H]1CC[C@H]([C@H](O)CC[C@H](O)[C@@H]2CC[C@@H](CCCCC[C@@H](O)CC3=C[C@H](C)OC3=O)O2)O1 [GIGANTECIN] | – | – | – | 0.268 (≈ 0.419 µM) | – | – | 0.411 (≈ 0.643 µM) | – | 2.19 | 222 (≈ 347 µM)
7 | C=C(C)[C@H]1Cc2c(ccc3c2O[C@@H]2COc4cc(OC)c(OC)cc4[C@@H]2C3=O)O1 [ROTENONE] | – | 0.75 (≈ 1.9 µM) | – | – | – | – | – | – | – | –
